This note sets out measurements from the Deep4Chem optical property database.

Structures are written as SMILES.

The data set is described as follows: solvent given as SMILES.

The compound `CCCCn1c2ccc(C#Cc3cccs3)cc2c2c1c1c3ccc(C#Cc4cccs4)cc3n(CCCC)c1c1c3ccc(C#Cc4cccs4)cc3n(CCCC)c21` came in with a fluorescence lifetime (in C1CCOC1) of 3.8 ns.

Take `c1ccc(-c2c3c(c(-c4ccccc4)c4cc5ccccc5cc24)Cc2c(c(-c4ccccc4)c4cc5ccccc5cc4c2-c2ccccc2)C3)cc1`: the fluorescence lifetime was found to be 6.87 ns (in CC#N); 3.8 ns (in CCCCCC); 3.68 ns (in CO); 3.24 ns (in Cc1ccccc1); 2.58 ns (in ClCCl).

As for `Cc1cn(C(F)(F)F)c(=O)[nH]c1=O`, where the note is “in CC#N”, the fluorescence lifetime stood at 0.0001 ns.

As to `c1cc2ccc3ccc4cc3c2cc1c1ccc2ccc3ccc(cc3c2c1)c1ccc2ccc3ccc4cc3c2c1`, for the setting “in Cc1ccccc1”, the fluorescence lifetime was 6.5 ns.

Regarding `CCCCCCCCN1c2ccccc2Sc2cc(/C=C/c3ccc(N(c4ccc(/C=C/c5ccc6c(c5)Sc5ccccc5N6CCCCCCCC)cc4)c4ccc(/C=C/c5ccc(/C=C/c6ccc(N(c7ccc(/C=C/c8ccc9c(c8)Sc8ccccc8N9CCCCCCCC)cc7)c7ccc(/C=C/c8ccc9c(c8)Sc8ccccc8N9CCCCCCCC)cc7)cc6)c6nsnc56)cc4)cc3)ccc21`, the fluorescence lifetime is, setting by setting: (in C1CCOC1) 1.45 ns; (in CCOC(C)=O) 1.83 ns; (in Cc1ccccc1) 3.53 ns; (in ClC(Cl)Cl) 2.25 ns; (in ClCCl) 2 ns.

For `c1ccc(Nc2nc(Nc3ccccc3)nc(Nc3ccc4cc5ccccc5cc4c3)n2)cc1`, the fluorescence lifetime (in C1COCCO1) worked out at 13.3 ns and the fluorescence lifetime (in CCOC(C)=O) was found to be 9 ns.

For `CC(C)(C)c1ccc(N(c2ccccc2)c2ccc3ccc4c(N(c5ccccc5)c5ccc(C(C)(C)C)cc5)ccc5ccc2c3c54)cc1`, the fluorescence lifetime (in ClCCl) turned out to be 6.2 ns.

For the compound `CC1=CC(C)=[N+]2C1=C(c1ccccc1)c1c(C)cc(C)n1[B-]2(F)F`, the fluorescence lifetime (in C1CCOC1) was 3.73 ns; the fluorescence lifetime (in CC#N) worked out at 3.81 ns; the fluorescence lifetime (in CC(=O)C(C)(C)C) came out at 3.39 ns; the fluorescence lifetime (in CC(C)=O) stood at 3.65 ns; the fluorescence lifetime (in CCCCCC) came to 3.37 ns; the fluorescence lifetime (in CCOC(C)=O) was determined as 3.98 ns. For the same compound, the fluorescence lifetime stood at 3.9 ns (in CO), 3.4 ns (in Cc1ccccc1) and 3.97 ns (in ClCCl).

Take `c12c3c4c5c1c1c6c7c2c2c8c3c3c9c4c4c%10c5c5c1c1c6c6c%11c%12c%13c%14c%15c%16c%17c%14c%14c%18c%13c%11c1c1c5c%10c5c(c%14c%10c%17c%11c%13c%16c%14c%16c%15c%12c%12c%16c(c2c7c%126)c2c8c3c(c%13c%142)c2c9c4c5c%10c%112)c%181`: the fluorescence lifetime (in CC1CCCCC1) was 0.65 ns.

Regarding `CC1=C(C(C)(C)C)C(C)=[N+]2C1=C(C)c1c(C)c(C(C)(C)C)c(C)n1[B-]2(F)F`, the fluorescence lifetime is 3.91 ns (in C1CCCCC1); 4.15 ns (in C1CCOC1); 4.37 ns (in C1COCCO1); 4.27 ns (in CC#N); 4.34 ns (in CC(C)=O); 4.43 ns (in CC(C)CC(C)(C)C). Further, the fluorescence lifetime is, setting by setting: (in CCC(C)C) 4.19 ns; (in CCCC(C)=O) 4.54 ns; (in CCCCCC) 4.35 ns; (in CCCCCCCCO) 4.68 ns; (in CCCCCCO) 4.59 ns; (in CCCCO) 4.33 ns. In addition, the fluorescence lifetime (in CCCCOC(C)=O) is 4.51 ns; the fluorescence lifetime (in CCCO) was 4.19 ns; the fluorescence lifetime (in CCO) worked out at 4.09 ns; the fluorescence lifetime (in CCOC(C)=O) was 4.31 ns; the fluorescence lifetime (in CCOCC) was 4.27 ns; the fluorescence lifetime (in CN(C)C=O) was determined as 4.69 ns. The same compound had a fluorescence lifetime (in CNC=O) of 4.45 ns, a fluorescence lifetime (in CO) of 4.21 ns, a fluorescence lifetime (in COC(C)=O) of 4.44 ns and a fluorescence lifetime (in OCC(F)(F)F) of 4.64 ns.

Regarding `c1ccc(-c2cc3cccc[n+]3[b-]3c(-c4cccc5[b-]4[n+]4ccccc4cc5-c4ccccc4)cccc32)cc1`, the fluorescence lifetime (in C1CCCCC1) came out at 4.5 ns.

`CC(C)(C)c1ccc2c(c1)c1cc(C(C)(C)C)ccc1n2-c1cc(C(=O)c2ccccn2)cc(-n2c3ccc(C(C)(C)C)cc3c3cc(C(C)(C)C)ccc32)c1` showed a fluorescence lifetime (in c1cc(-c2cccc(-n3c4ccccc4c4ccccc43)c2)cc(-n2c3ccccc3c3ccccc32)c1) of 5.3 ns.

As for `CCCCCCCCCCCCn1nnc(-c2ccc(C#Cc3ccc(C#Cc4ccc(-c5nnn(CCCCCCCCCCCC)n5)cc4)c4nc5c6ccccc6c6ccccc6c5nc34)cc2)n1`, the fluorescence lifetime runs as follows: (in C1CCOC1) 2.54 ns; (in Cc1ccccc1) 3.55 ns; (in ClCCl) 4.82 ns.

`CCCCCCCCOc1ccc(C2=C3C(C)=C(C#Cc4ccc(B(c5c(C)cc(C)cc5C)c5c(C)cc(C)cc5C)cc4)C(C)=[N+]3[B-](F)(F)n3c(C)c(C#Cc4ccc(B(c5c(C)cc(C)cc5C)c5c(C)cc(C)cc5C)cc4)c(C)c32)cc1`: the fluorescence lifetime (in CC#N) is 4.37 ns, the fluorescence lifetime (in CCCCCC) was 5.4 ns and the fluorescence lifetime (in ClCCl) is 4.39 ns.

The compound `CCN(CC)c1ccc2c(c1)C(C)(C)C(=O)C=C2` showed a fluorescence lifetime (in O) of 2.56 ns.

As to `CC(=O)O[B-]1(OC(C)=O)OC(/C=C/c2ccc(C)cc2)=CC(/C=C/c2ccc(C)cc2)=[O+]1`, the fluorescence lifetime runs as follows: (in C1CCOC1) 1.32 ns; (in CC#N) 1.23 ns; (in CC(C)=O) 1.19 ns; (in CS(C)=O) 1.27 ns; (in Cc1ccccc1) 1.34 ns; (in ClC(Cl)Cl) 1.25 ns. Where the note is “in ClCCl”, this compound showed a fluorescence lifetime of 1.26 ns.

Consider `[NH-]c1cc(N)cc(-c2nc3ccccc3s2)c1`, for which, for the setting “in O”, the fluorescence lifetime came to 3.98 ns.

As for `Cn1c(=O)cc(C(=O)c2ccccc2)c2sc(-c3ccc(C(F)(F)F)cc3)cc21`, for the setting “in ClCCl”, the fluorescence lifetime was found to be 1.66 ns.

As to `CCN(CC)c1ccc(-c2nc3c(c4c2-c2ccccc2CC4)-c2ccccc2CC3)cc1`, the fluorescence lifetime (in C1CCOC1) is 1.06 ns; the fluorescence lifetime (in CC#N) was 0.68 ns; the fluorescence lifetime (in CCOC(C)=O) came to 0.85 ns; the fluorescence lifetime (in CO) turned out to be 0.68 ns; the fluorescence lifetime (in CS(C)=O) stood at 1.02 ns; the fluorescence lifetime (in Cc1ccccc1) is 0.8 ns. In addition, the fluorescence lifetime (in ClCCl) turned out to be 1.22 ns.

In turn, `c1ccc(-c2nc(-c3ccccc3)nc(-c3ccc(-n4c5ccccc5c5ccc6c7ccccc7n(-c7ccccc7)c6c54)cc3)n2)cc1` came in with a fluorescence lifetime (in O=P(c1ccccc1)(c1ccccc1)c1ccc2oc3ccc(P(=O)(c4ccccc4)c4ccccc4)cc3c2c1) of 11.9 ns.

Consider `CC1=C2C=CC=[N+]2[B-](F)(F)n2cccc21`, for which the fluorescence lifetime stood at 6.62 ns (in CCCCCC), 6.69 ns (in CO) and 6.16 ns (in ClCCl).

Compound `CCCCn1c(-c2ccc(-c3nnc(-c4cccs4)o3)cc2)nc2c3ccccc3c3ccccc3c21` returned a fluorescence lifetime (in ClCCl) of 1.76 ns.

In turn, `Cc1ccc(C2=Cc3c4ccccc4cc[n+]3[B-](F)(F)O2)cc1` showed a fluorescence lifetime (in ClC(Cl)Cl) of 0.377 ns.

Turning to `CN(C)c1ccc2nc(/C=C/c3ccccc3)c(=O)oc2c1`, the fluorescence lifetime is 2.82 ns (in C1CCCCC1); 3.52 ns (in C1COCCO1); 3.95 ns (in CC#N); 3.82 ns (in CC(C)=O); 2.8 ns (in CCCCCCC); 3.77 ns (in CCO). For the same compound, the fluorescence lifetime (in CCOC(C)=O) came out at 3.58 ns; the fluorescence lifetime (in CN(C)C=O) turned out to be 3.65 ns; the fluorescence lifetime (in CS(C)=O) was 3.58 ns; the fluorescence lifetime (in Cc1ccccc1) is 3 ns; the fluorescence lifetime (in ClC(Cl)Cl) stood at 3.74 ns; the fluorescence lifetime (in ClCCl) amounted to 3.83 ns.

In the case of `COC(=O)c1cc(=O)n(C)c2cc(-c3ccc4c(c3)OCO4)sc12`, the fluorescence lifetime (in ClCCl) was 1.72 ns.

Consider `c1ccc(Nc2nc(Nc3ccccc3)nc(Nc3ccc4ccc5cccc6ccc3c4c56)n2)cc1`, for which the fluorescence lifetime (in CCCCCCC) was 4.3 ns.

As to `COc1ccc(N(c2ccccc2)c2ccc3ccc4c(N(c5ccccc5)c5ccc(OC)cc5)ccc5ccc2c3c54)cc1`, for the setting “in ClCCl”, the fluorescence lifetime is 9 ns.

`c1ccc(N2c3ccc4ccccc4c3-c3c4ccccc4cc[n+]3[B-]2(c2ccccc2)c2ccccc2)cc1`: the fluorescence lifetime (in Cc1ccccc1) was 6.31 ns.

For the compound `CCCCCCOc1ccc(C#Cc2ccc(C#CC#Cc3ccc(C#Cc4ccc(OCCCCCC)c(OCCCCCC)c4)c4nsnc34)c3nsnc23)cc1OCCCCCC`, the fluorescence lifetime by setting is: (in CN(C)C=O) 0.5 ns; (in COc1ccccc1) 2.2 ns; (in Cc1ccccc1) 1.9 ns; (in ClC(Cl)Cl) 2.6 ns; (in ClCCCl) 2 ns; (in ClCCl) 2.5 ns.

Take `CC(C)(C)c1ccc2c(c1)c1cc(C(C)(C)C)ccc1n2-c1ccc(C#Cc2ccccc2)cc1`: the fluorescence lifetime by setting is: (in CC#N) 4.75 ns; (in CCCCC) 2.07 ns; (in CO) 4.99 ns; (in Cc1ccccc1) 1.77 ns; (in ClC(Cl)Cl) 2.39 ns; (in ClCCl) 3.91 ns.

Turning to `COc1cnc(-c2cc[n+](C3=C(F)C(F)(F)C(F)(F)[C-]3F)cc2)s1`, the fluorescence lifetime is, setting by setting: (in CC#N) 2.3 ns; (in CC(C)=O) 2.3 ns; (in CCO) 1.04 ns; (in CN(C)C=O) 0.41 ns; (in CO) 0.54 ns; (in CS(C)=O) 0.22 ns. Also, the fluorescence lifetime came out at 2.85 ns (in ClC(Cl)Cl) and 2.81 ns (in ClCCl).

Regarding `N#C/C(=C\c1ccncc1)c1nc(-c2ccccc2)cs1`, where the note is “in CC#N”, the fluorescence lifetime is 4.85 ns.

The compound `O=C(O)CCCCCn1c2ccccc2c(=O)c2cc(S(=O)(=O)O)ccc21` yielded a fluorescence lifetime (in O) of 13 ns.

In turn, `O=C(O)CCCc1cc2ccc3cccc4ccc(c1)c2c34` registered a fluorescence lifetime (in CO) of 622 ns.

On to `COc1ccc2nc(N)sc2c1`, for which the fluorescence lifetime is 4.4 ns (in CC#N) and 3.86 ns (in ClCCl).

Under “in C1CCOC1”, `COc1cc2c(cc1-c1ccsc1)Cc1c3c(c4c(c1-2)-c1cc(OC)c(-c2ccsc2)cc1C4)C(=O)N(CCC(C)C)C3=O` had a fluorescence lifetime of 3.42 ns.

`CCCCCCOc1cc(C=C2C(=O)c3ccccc3C2=O)c(OCCCCCC)cc1C=C1C(=O)c2ccccc2C1=O` displayed a fluorescence lifetime (in ClCCl) of 5.4 ns.
